Earlier results on 3 substances are cited in publication doi:10.1101/2020.07.01.182659 (bioRxiv, 2020).

Some results are limits rather than exact numbers.

On to QRPRLSHKGPMP↓F [Apelin-13], for which, in the series on ACE2, the Km was less than 10 µM and the kcat/Km was more than 1e+06 M⁻¹ s⁻¹. Further, in the series with APJR, the “affinity to APJR (in words)” value is “nanomolar affinity” and the “decrease of potency after cleavage of C-terminal phenylalanine” value is reported as 2–5 fold.

Turning to YGGFLRRIRPKL↓K [Dynorphin A 1–13], in the series with ACE2, the “ACE2 activity on peptide (in words)” value is given as “good ACE2 substrate”, the Km is less than 10 µM and the catalytic efficiency (kcat/Km) is more than 1e+06 M⁻¹ s⁻¹. Further, in the series with opioid receptors, the “loss of potency on removal of C-terminal lysine” value is 90%.

Consider YPFVEP↓I [β–Casomorphin], for which the “ACE2 activity on peptide (in words)” value with ACE2 is recorded as “good ACE2 substrate”.
